Results reported in patent US5912227A, “Method of enhancing nutrient uptake” (North Carolina State University, priority 1995, dated 1999).

B1: recombinant bovine growth hormone: recombinant bovine growth hormone injected in sheep (cited Ph.D. thesis) (protein, UniProt P01246 27-217, looked up)
Somatotropin: AFPAMSLSGLFANAVLRAQHLHQLAADTFKEFERTYIPEGQRYSIQNTQVAFCFSETIPAPTGKNEAQQKSDLELLRISLLLIQSWLGPLQFLSRVFTNSLVFGTSDRVYEKLKDLEEGILALMRELEDGTPRAGQILKQTYDKFDTNMRSDDALLKNYGLLSCFRKDLHKTETYLRVMKCRRFGEASCAF

Tests used:
[1] = system: jejunal glucose transport (S-GLT1 transporter); assay: Jejunal glucose transport ([3H]3-O-methyl-D-glucose uptake by jejunal rings of treated mice, with and without phlorizin); format: in vivo, swiss-webster mice; settings: for Glucose Transport, Total / Glucose Transport, Active / Glucose Transport, Passive: mid-jejunal rings of treated mice; for Glucose Transport, Total: 37° C. without phlorizin minus 4° C. with phlorizin; for Glucose Transport, Active: difference of 3OMG accumulation with and without phlorizin, 37° C.; for Glucose Transport, Passive: with phlorizin, 37° C. minus 4° C.
Experimental: (§1) Two month old male swiss-webster mice obtained from Charles River Laboratory were subcutaneously injected in the post-scapula region once a day for three days with one of the following treatments: (1) Saline treatment: 0.25 ml of sterile physiological saline (0.9% saline) (n=9 mice); (2) Peptide YY (PYY) treatment: 300 μg per kilogram body weight of Peptide YY in 0.25 ml sterile physiological saline solution (n=6 mice); (c) Somatostatin treatment: 120 μg per kilogram body weight of somatostatin in 0.25 ml sterile physiological saline solution (n=6 mice); or (4) Transforming Growth Factor alpha (TGFα) treatment: 300 μg per kilogram body weight of TGFα in 0.25 ml sterile physiological saline solution (n=6 mice).
A sample of mid-jejunal tissue was dissected out of each of the small intestines removed in Example 2. As described below, each glucose transport assay was replicated three times per mouse, and an assay to measure non-specific binding was replicated twice per mouse. Thus each mid-jejunal sample (one from each mouse) was cut into eight one millimeter rings.
The assay for glucose transport was a modification of the assay validated by Black, Comp. Biochem Physiol. 90A:379 (1988) to measure glucose transport in embryonic chick duodenum. Additional details of the present method as modified for mouse intestine are discussed in Bird et al., J. Nutr. 124:231 (1994), and the method is validated for mice in Bird et al., Nutr. Research, 14:411 […]. The transport buffer utilized for jejunal samples was similar to that described by Black (1988) but also contained 0.5 mmol/L 3-O-methyl-D-glucose (3 OMG), 0.5 mmol/L B-hydroxybutyrate, and 2.5 mmol/L glutamine. The assay was started by transferring intestinal rings preincubated at 37° C. for 5 minutes in transport buffer to beakers containing 28 MBq/L of [^3 H]3 OMG in 2 ml of buffer. To differentiate active from passive transport, phlorizin (phloretin-2'-β-D-glucoside; Sigma Chemicals, St. Louis, Mo.) was utilized. Phlorizin is a specific inhibitor of the S-GLT1 transporter (a sodium dependent active transporter) located on the luminal surface of absorptive epithelium (see Brot-Laroche and Alvarado, Mechanisms of sugar transport across the intestinal brush border membrane, IN: Intestinal Transport: Fundamental and Comparative Aspects, Gilles-Baillin and Gilles (Eds.), Springer-Verlag, Berlin (1983)). The S-GLT1 transporter is one of a family of transporter proteins, and actively transports glucose.
Uptake of [^3 H]3 OMG was stopped after 5 minutes by rinsing samples in 3 ml of ice-cold mannitol (300 mmol/L). Labelled substrate was extracted from the tissue into 2 mL of trichloroacetic acid (25 g/L) at 37° C. for 60 minutes in a shaking water bath. Samples were removed, blotted and weighed. The extract was centrifuged at 2000×g for 15 minutes at 4° C., and then 1 ml of the decanted supernatant was dispersed in 5 ml of Ecolite (+) scintillation cocktail (ICN Biomedicals, Cleveland, Ohio) and counted for 10 minutes in a scintillation counter. Duplicate aliquots (100 uL) of incubation media containing approximately 2.8 kBq [^3 H]3 OMG (both with and without phlorizin) and a blank were counted with each set of samples.
Active glucose transport was calculated as the difference between 3 OMG accumulation in media with and without phlorizin. Passive transport was calculated as the difference between 3 OMG accumulation in the presence of phlorizin at 37° C. and 4° C. Total transport is the difference between 3 OMG accumulation at 37° C., in the absence of phlorizin, and accumulation at 4° C. in the presence of phlorizin. Transport data are presented as pmol glucose/(min-mg wet tissue). Fasting body weight of the mice was used to express data on a body weight basis.

[2] = Visceral organ weight of treated mice; format: in vivo, swiss-webster mice
Experimental: as §1
After the treated mice were sacrificed by cervical dislocation as described in Example 2, the visceral organs were dissected out and the liver, stomach, kidneys, colon and caecum of each mouse was weighed. The kidneys of the PYY treatment group were heavier than those of other treatment groups for unknown reasons.

[3] = system: jejunal oxygen consumption; assay: Jejunal oxygen consumption of treated mice, with and without ouabain; format: in vivo, swiss-webster mice; settings: jejunum of treated mice, 37° C.; for Oxygen Consumption, With Ouabain, Dry / Oxygen Consumption, Without Ouabain, Dry: dry tissue; for Oxygen Consumption, With Ouabain, Wet / Oxygen Consumption, Without Ouabain, Wet: wet tissue
Experimental: as §1
Measurement of oxygen consumption rate was determined as described by McBride and Milligan, Br. J. Nutr., 53:605 (1985) for ovine duodenal mucosa, and as described by Bird et al., J. Nutr. 124:231 (1994) for mice jejunum, using an oxygen monitor and an incubation bath fitted with an O2 electrode (Yellow Springs Instruments, Yellow Springs, Ohio, USA). Adjacent jejunal ring samples (two from each mouse jejunum) were prepared by rinsing in ice-cold HEPES transport buffer to remove digesta residues. The rate of O2 uptake of the duplicate jejunal samples, constantly stirred in 4 ml of media at 37° C., was electronically recorded. After 3 minutes, 100 uL of 12.6 mmol/L ouabain (Sigma Chemical), a specific inhibitor of Na+, K+-ATPase, was added to the chamber and oxygen consumption was plotted for 3 minutes. Dry matter content of the tissue pieces was then measured by drying the jejunal samples at 80° C. in a forced draught oven for 48 hours.

[4] = system: Na-dependent active glucose uptake; assay: Energetic efficiency of Na-dependent active glucose uptake; format: in vivo, swiss-webster mice; settings: compared with saline control; 1 nmol O2 assumed = 5 nmol ATP; FIG. 1
Experimental: The energetic efficiency of Na-dependent active glucose uptake in the PYY treated mice and the saline control treated mice was calculated, assuming that consumption of 1 nmol of O2 (as measured in Example 5, above) indicated expenditure of 5 nmol of ATP (Gill et al., J. Nutr. 119:1287-1299 (1989).

[5] = system: water and electrolyte absorption from the small intestine; settings: unfed dogs, peripheral infusion; cited from earlier work
[6] = system: sodium-dependent duodenal active transport; settings: sheep injected with recombinant bovine growth hormone; cited from earlier work
[7] = mice, s.c. once a day for three days

Molecule	Glucose Transport, Total [1]	Glucose Transport, Active [1]	Glucose Transport, Passive [1]	Organ Weight, Caecum ([2]; mouse, in vivo, sc)	Organ Weight, Colon ([2]; mouse, in vivo, sc)	Organ Weight, Kidneys ([2]; mouse, in vivo, sc)	Organ Weight, Liver ([2]; mouse, in vivo, sc)	Organ Weight, Stomach ([2]; mouse, in vivo, sc)	Oxygen Consumption, With Ouabain, Dry [3]	Oxygen Consumption, Without Ouabain, Dry [3]	Oxygen Consumption, With Ouabain, Wet [3]	Oxygen Consumption, Without Ouabain, Wet [3]	further results
Transforming Growth Factor alpha [TGFα]	410 pmol/min/mg tissue	347 pmol/min/mg tissue	64 pmol/min/mg tissue	156 mg	379 mg	522 mg	1442 mg	243 mg	179.01 µL/min/g	238.76 µL/min/g	36.03 µL/min/g	47.96 µL/min/g	
C[C@H](N)C(=O)NCC(=O)N[C@H]1CSSC[C@@H](C(=O)O)NC(=O)[C@H](CO)NC(=O)[C@H]([C@@H](C)O)NC(=O)[C@H](Cc2ccccc2)NC(=O)[C@H]([C@@H](C)O)NC(=O)[C@H](CCCCN)NC(=O)[C@H](Cc2c[nH]c3ccccc23)NC(=O)[C@H](Cc2ccccc2)NC(=O)[C@H](Cc2ccccc2)NC(=O)[C@H](CC(N)=O)NC(=O)[C@H](CCCCN)NC1=O [Somatostatin, somatostatin]	371 pmol/min/mg tissue	303 pmol/min/mg tissue	67 pmol/min/mg tissue						181.29 µL/min/g	224.77 µL/min/g	35.13 µL/min/g	43.62 µL/min/g	Organ Weight, Caecum [2, 7]: 156 mg; Organ Weight, Colon [2, 7]: 316 mg; Organ Weight, Kidneys [2, 7]: 534 mg; Organ Weight, Liver [2, 7]: 1441 mg; Organ Weight, Stomach [2, 7]: 232 mg
PYY: 36 amino acid hormonal peptide, produced by "L type" endocrine cells; member of the pancreatic polypeptide family [Peptide YY]	431 pmol/min/mg tissue	369 pmol/min/mg tissue	63 pmol/min/mg tissue	134 mg	315 mg	468 mg	1274 mg	230 mg	194.22 µL/min/g	253.93 µL/min/g	36.54 µL/min/g	47.71 µL/min/g	increase in active glucose transport expressed per unit of body weight (Table 2 footnote) ([1]; compared to saline control): 46; increase in active glucose transport expressed per unit of fasting body weight ([1]; compared to the saline control group): 46%; active glucose transport, comparison with saline control group ([1]; per milligram of intestinal tissue): statistically significant increase; metabolic cost of total glucose uptake (total nmol ATP expended per nmol of 3OMG uptake) [4]: less; water and electrolyte absorption from the small intestine [5]: dose-dependent increase
B1													increase of sodium-dependent duodenal active transport of glucose [6]: approximately 60%; increase of transport of proline [6]: approximately 30%
